Laboratory results published in ChEMBL document CHEMBL1772945, “Bioactive compounds from the scale insect pathogenic fungus Conoideocrella tenuis BCC 18627” (J Nat Prod, 2011).
In brackets after ≈: the same amount, converted by molar mass. Where a name gives a salt, the structure may show the parent alone.

What was measured:
Human alphaherpesvirus 1 = test: Antiviral activity against HSV-1 by green fluorescent protein microplate assay; type: functional, organism-based
Plasmodium falciparum = test: Antimalarial activity against multi-drug-resistant Plasmodium falciparum K1 by microculture radioisotope technique; type: functional, organism-based
[1] = system: Mycobacterium tuberculosis; test: Antitubercular activity against Mycobacterium tuberculosis H37Ra by green fluorescent protein microplate assay; type: functional
NCI-H187 = test: Cytotoxicity against human NCI-H187 cells after 45 hrs by resazurin microplate assay; type: functional, cell-based; details: NCI-H187, 45 h
MCF7 = test: Cytotoxicity against human MCF7 cells after 45 hrs by resazurin microplate assay; type: functional, cell-based; details: MCF7, 45 h
Vero = test: Cytotoxicity against african green monkey Vero cells by green fluorescent protein microplate assay; type: cell-based; details: Chlorocebus sabaeus
KB = test: Cytotoxicity against human KB cells after 45 hrs by resazurin microplate assay; type: functional, cell-based

CC(C)(O)[C@H]1CC[C@]2(C)[C@H]3C[C@@H](O)[C@@H]4[C@@]5(C)CCCC(C)(C)[C@@H]5[C@H](O)C[C@@]4(C)[C@]3(C=O)CC[C@@H]12
IC50 (Human alphaherpesvirus 1): 21 µM
IC50 (Plasmodium falciparum): > 21 µM
MIC [1]: > 105 µM
IC50 (NCI-H187): 68 µM
IC50 (MCF7): 28 µM
IC50 (Vero): 69 µM
IC50 (KB): 10 µM

CC(C)(O)[C@H]1CC[C@]2(C)[C@H]3C[C@@H](O)[C@@H]4[C@@]5(C)CCCC(C)(C)[C@@H]5[C@H](O)C[C@@]4(C)[C@]3(CO)CC[C@@H]12
IC50 (Human alphaherpesvirus 1): 14 µM
IC50 (Plasmodium falciparum): 9.8 µM
MIC [1]: 52 µM (≈ 24.8 µg/mL)
IC50 (NCI-H187): 47 µM
IC50 (MCF7): 15 µM
IC50 (Vero): 47 µM
IC50 (KB): 5.6 µM

CC(C)(O)[C@H]1CC[C@]2(C)[C@H]3CC[C@@H]4[C@@]5(C)CCCC(C)(C)[C@@H]5[C@H](O)[C@H](O)[C@@]4(C)[C@]3(C)CC[C@@H]12
IC50 (Human alphaherpesvirus 1): > 109 µM
IC50 (Plasmodium falciparum): > 22 µM
MIC [1]: > 109 µM
IC50 (NCI-H187): > 109 µM
IC50 (MCF7): > 109 µM
IC50 (Vero): > 109 µM
IC50 (KB): > 109 µM

COc1cc(OC)c2c(O)c3c(c(-c4c(OC)cc(OC)c5c(O)c6c(cc45)[C@H](OC(C)=O)[C@H](C)OC6)c2c1)[C@H](OC(C)=O)[C@H](C)OC3
IC50 (Human alphaherpesvirus 1): > 75 µM
IC50 (Plasmodium falciparum): 15 µM
MIC [1]: > 75 µM
IC50 (NCI-H187): 12 µM
IC50 (MCF7): 37 µM
IC50 (Vero): > 75 µM
IC50 (KB): 15 µM

COc1cc(OC)c2c(O)c3c(c(-c4c5c(c(O)c6c(OC)cc(OC)cc46)CO[C@@H](C)[C@H]5OC(C)=O)c2c1)[C@H](OC(C)=O)[C@H](C)OC3
IC50 (Human alphaherpesvirus 1): > 75 µM
IC50 (Plasmodium falciparum): 10 µM
MIC [1]: > 75 µM
IC50 (NCI-H187): 71 µM
IC50 (MCF7): 22 µM
IC50 (Vero): > 75 µM
IC50 (KB): 4.4 µM

Nc1nc2c(ncn2COCCO)c(=O)[nH]1 [ACYCLOVIR]
IC50 (Human alphaherpesvirus 1): 17 µM

COc1cccc2c1C(=O)c1c(O)c3c(c(O)c1C2=O)C[C@@](O)(C(=O)CO)C[C@@H]3O[C@H]1C[C@H](N)[C@H](O)[C@H](C)O1 [DOXORUBICIN HYDROCHLORIDE]
IC50 (NCI-H187): 0.23 µM
IC50 (MCF7): 4.9 µM
IC50 (KB): 0.27 µM

Cc1c2ccncc2c(C)c2c1[nH]c1ccccc12 [ELLIPTECINE]
IC50 (Vero): 12 µM
